Assays:
[1] = target: T1, S. cerevisiae gluconokinase (YDR248C) (Saccharomyces cerevisiae, UniProt Q03786); assay: gluconokinase assay, HPAEC of products; type: biochemical; settings: 1 mM gluconate, 5 mM ATP, 0.2 μM enzyme, 1x PBS, 30 °C, 30 min
T1 construct: full ORF with C-terminal His6-tag, expressed in and purified from S. cerevisiae
T1 sequence (Q03786 1-193): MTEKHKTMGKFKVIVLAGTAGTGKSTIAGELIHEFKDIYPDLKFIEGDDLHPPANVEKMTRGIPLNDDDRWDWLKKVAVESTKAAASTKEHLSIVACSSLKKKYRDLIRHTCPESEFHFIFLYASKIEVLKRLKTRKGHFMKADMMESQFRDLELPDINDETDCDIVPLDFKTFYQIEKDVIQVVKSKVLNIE

[2] = target: T2, CBT-1 (NCU05853) (Neurospora crassa, UniProt Q7S555); assay: yeast cell-based uptake assay, HPAEC of remaining sugar; settings: pH 6.0, 30 °C, 30 min; 5 mM MES, 100 mM NaCl; S. cerevisiae cells expressing the transporter
T2 construct: expressed in S. cerevisiae from plasmid pRS426_NCU05853
Source text: yeast cell-based uptake assay, HPAEC of remaining sugar on CBT-1 (NCU05853) | only NCU05853 […] was capable of transporting cellobionic acid into the cell

[3] = target: CAP (NCU09425) (Neurospora crassa, UniProt Q7S0S2); settings: 2 mM cellobionate, 0.5 μM enzyme, 1x PBS, 30 °C, 30 min
Chain of CAP (NCU09425) (Q7S0S2 whole entry): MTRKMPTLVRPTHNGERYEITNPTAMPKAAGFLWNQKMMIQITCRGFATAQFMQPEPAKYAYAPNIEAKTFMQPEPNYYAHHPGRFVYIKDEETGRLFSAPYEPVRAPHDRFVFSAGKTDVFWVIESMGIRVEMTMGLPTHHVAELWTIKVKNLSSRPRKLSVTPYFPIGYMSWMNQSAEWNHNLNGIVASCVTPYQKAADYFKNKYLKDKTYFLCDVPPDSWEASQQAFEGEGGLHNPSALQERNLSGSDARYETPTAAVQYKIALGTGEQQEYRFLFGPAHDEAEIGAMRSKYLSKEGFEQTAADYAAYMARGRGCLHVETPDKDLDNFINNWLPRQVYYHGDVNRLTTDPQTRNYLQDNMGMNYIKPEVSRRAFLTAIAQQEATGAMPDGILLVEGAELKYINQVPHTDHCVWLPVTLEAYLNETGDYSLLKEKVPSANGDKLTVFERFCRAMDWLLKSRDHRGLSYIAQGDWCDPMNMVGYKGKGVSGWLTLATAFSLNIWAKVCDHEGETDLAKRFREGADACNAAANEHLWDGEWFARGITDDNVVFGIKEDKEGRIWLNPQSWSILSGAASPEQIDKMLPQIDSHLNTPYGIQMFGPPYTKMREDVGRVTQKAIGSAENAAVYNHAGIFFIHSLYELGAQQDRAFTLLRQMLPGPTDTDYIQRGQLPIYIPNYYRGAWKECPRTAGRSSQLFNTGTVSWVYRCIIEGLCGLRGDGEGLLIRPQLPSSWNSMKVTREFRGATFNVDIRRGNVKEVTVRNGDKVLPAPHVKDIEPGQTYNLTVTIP

T2 sequence (Q7S555 entry or part of it): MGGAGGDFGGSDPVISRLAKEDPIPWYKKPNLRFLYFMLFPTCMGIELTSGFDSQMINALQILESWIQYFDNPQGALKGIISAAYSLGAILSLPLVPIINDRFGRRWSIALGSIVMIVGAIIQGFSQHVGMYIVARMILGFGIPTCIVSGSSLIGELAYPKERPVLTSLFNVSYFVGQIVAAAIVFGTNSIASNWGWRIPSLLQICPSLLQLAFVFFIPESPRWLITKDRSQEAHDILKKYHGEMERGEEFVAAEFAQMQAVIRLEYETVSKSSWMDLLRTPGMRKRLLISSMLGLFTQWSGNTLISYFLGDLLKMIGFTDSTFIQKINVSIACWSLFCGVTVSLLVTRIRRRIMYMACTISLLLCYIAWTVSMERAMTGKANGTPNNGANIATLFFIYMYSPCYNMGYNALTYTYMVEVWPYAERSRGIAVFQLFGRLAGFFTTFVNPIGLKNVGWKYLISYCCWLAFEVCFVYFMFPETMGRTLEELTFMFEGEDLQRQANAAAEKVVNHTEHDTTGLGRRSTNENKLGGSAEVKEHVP

Compound | gluconokinase assay, HPAEC of products [1] | yeast cell-based uptake assay, HPAEC of remaining sugar [2] | phosphorolysis, HPAEC of products [3]
O=C(O)[C@H](O)[C@@H](O)[C@H](O)[C@H](O)CO [A1, gluconic acid] | YDR248C has gluconokinase activity in vitro | – | –
O=C(O)[C@H](O)[C@@H](O)[C@H](O[C@@H]1O[C@H](CO)[C@@H](O)[C@H](O)[C@H]1O)[C@H](O)CO [A2, cellobionic acid] | – | only NCU05853 [...] was capable of transporting cellobionic acid into the cell | specifically cleaved cellobionic acid to gluconic acid and glucose 1-phosphate

Reference: paper PMC4537572, “Cellobionic acid utilization: from Neurospora crassa to Saccharomyces cerevisiae” (Biotechnology for Biofuels, 2015)
